The text below walks through data of US10526292B2 (Parion Sciences, Inc., priority 2012, dated 2020).

The test system of one data set is ExLac rats. As to the kind of experiment: Tear volume in rat model of dry eye disease (lacrimal gland excision, ExLac Model). The settings on record: 5 μl test article solution per eye, tear volume by ZoneQuick thread over 6 h. It counts as in vivo, Sprague Dawley rats. The method, then: The effects of compounds on tear volume was assessed in a rat model of dry eye disease in which Sprague Dawley rats undergo surgical lacrimal gland excision (ExLac Model) to reduce normal tear volume. The lacrimal excision reduces normal tear volume by ˜50% (Table 2).
Both the ipsilateral and contralateral eyes were dosed with 5 μl of test article solution. Tear production was measured using the ZoneQuick cotton thread with impregnated phenol red dye. The folded end of the thread was held in the lateral-ventral conjunctival cul-de-sac for 10 seconds. The length of tear wicking onto the thread was determined by measuring the length of the thread that changes color from yellow to red. Use of a stereomicroscope was assist in the accurate measurement (recorded in millimeters) of the wicking/color change. Tear volume was assessed pre-dose, and 15, 30, 60, 120, and 360 minute post-dose. For reference, the effect of a saline vehicle is shown for ExLac rats and normal (no lacrimal excision surgery) rats.

The subject of a further data set is rats. The settings on record: topical addition; cited from earlier work.
The nature of data set [1]: Confocal microscopy assay of amiloride congener transport. It counts as in vitro ADME. The settings on record: applied to apical (epithelial) surface of mouse corneas, one hour at 37 C. From the text:
Serial x-y images were obtained one hour post-drug addition by confocal microsopy.

The next data set relates to rabbits. Conditions: topical addition; cited from earlier work.
Data set [2] in a line: In vitro drug metabolism: hepatocyte stability, dog. It counts as in vitro ADME. The settings on record: dog hepatocyte suspension, 10 μM, 37° C., up to six hours. As for the experimental part:
(§1) The metabolic stability of 9 and 15 was assessed in plasma (rat, rabbit, dog and human) and hepatocytes (rat and dog). Compounds were added either directly to plasma or to hepatocyte suspensions at a final concentration of 2.5 or 10 μM, respectively, and incubated at 37° C. for up to six hours. Aliquots were removed at various time points and quenched. The amount of parent compound was quantified via UPLC-fluorescence analysis. The amount of parent compound remaining was calculated based on the total peak area at the time of sampling divided by the total peak area at initiation.

Data set [3] is described as follows: In vitro drug metabolism: plasma stability, rat. Format: in vitro ADME. Conditions: 2.5 μM, 37° C., up to six hours. The method, then:
as §1

Data set [4] in a line: In vitro drug metabolism: summary in words for plasma and hepatocytes among the species evaluated. Format: in vitro ADME. Conditions: plasma (rat, rabbit, dog, human) and hepatocytes (rat, dog). The method, then: as §1
The nature of data set [5]: In vitro drug metabolism: plasma stability, rabbit. Format: in vitro ADME. The settings on record: 2.5 μM, 37° C., up to six hours. As for the experimental part: as §1
The nature of data set [6]: In vitro drug metabolism: plasma stability, human. Format: in vitro ADME. The settings on record: 2.5 μM, 37° C., up to six hours. The method, then: as §1
A short description of data set [7]: In vitro drug metabolism: hepatocyte stability, rat. Conditions: rat hepatocyte suspension, 10 μM, 37° C., up to six hours. It counts as in vitro ADME. As for the experimental part: as §1
Data set [8] is described as follows: In vitro drug metabolism: plasma stability, dog. Format: in vitro ADME. The settings on record: 2.5 μM, 37° C., up to six hours. The method, then:
as §1

In the next data set the target is Muc5B (Homo sapiens, UniProt Q9HC84). Conditions: in vitro; cited from earlier work.

SMILES strings stand for the structures.

Turning to `N=C(N)NC(=O)c1nc(Cl)c(N)nc1N` [Amiloride, amiloride], the “6 h Ocular Hydration (AUC0-6)” value in the data set on ExLac rats amounted to 30.4. In addition, the “Change of tear volume” value in the data set on rats and in the data set with rabbits was “approximate doubling of tear volume” each time. For the same molecule, the “Time tear volume remained elevated post-administration” value with rats and with rabbits was greater than 60 min in each case. Moreover, in data set [1], the “Penetration of the cornea (confocal x-z image, FIG. 16)” value is “can fully penetrate the cornea”.

For the molecule `N=C(N)NCCCC[C@@H](N)C(=O)NCCCN(CCCNC(=O)[C@H](N)CCCCNC(=N)N)CCOc1ccc(CCCCNC(=N)NC(=O)c2nc(Cl)c(N)nc2N)cc1` [Compound 9, (2R,2′R)—N,N′-(3,3′-(2-(4-(4-(3-(3,5-diamino-6-chloropyrazine-2-carbonyl)guanidino)butyl)phenoxy)ethylazanediyl)bis(propane-3,1-diyl))bis(2-amino-6-guanidinohexanamide)], in the data set on ExLac rats, the “6 h Ocular Hydration (AUC0-6)” value worked out at 50.2. In addition, the entries for the “Hepatocyte Stability (amount of parent compound remaining)” value in data set [2] and in data set [7] were 94% and 100%, respectively. The “Penetration of the cornea (confocal x-z image, FIG. 16)” value in data set [1] is on record as “remains associated with the apical (epithelial) surface”. Also, the “Plasma Stability (amount of parent compound remaining)” value in data set [3] is on record as 87%; in data set [5], 89%; in data set [6], 101%; in [8] it was 103%. Besides, the “Stability towards metabolic hydrolysis in plasma and hepatocytes” value in data set [4] is on record as “stable towards metabolic hydrolysis”.

Turning to `N=C(N)NCCCC[C@H](N)C(=O)NCCCN(CCCNC(=O)[C@@H](N)CCCCNC(=N)N)CCOc1ccc(CCCCNC(=N)NC(=O)c2nc(Cl)c(N)nc2N)cc1` [Compound 15, (2S,2′S)—N,N′-(3,3′-(2-(4-(4-(3-(3,5-diamino-6-chloropyrazine-2-carbonyl)guanidino)butyl)phenoxy)ethylazanediyl)bis(propane-3,1-diyl))bis(2-amino-6-guanidinohexanamide)], the “6 h Ocular Hydration (AUC0-6)” value with ExLac rats is listed as 50.2. In addition, the “Hepatocyte Stability (amount of parent compound remaining)” value in data set [2] was found to be 19%; in [7] it was 14%. Besides, the “Plasma Stability (amount of parent compound remaining)” value was 10% in [3], 8.7% in data set [5], 7.6% in [6] and 18% in data set [8]. Moreover, in data set [4], the “Stability towards metabolic hydrolysis in plasma and hepatocytes” value is given as “rapidly metabolized”.

Turning to `N=C(NCCCCc1ccc(OCCN(CCCN)CCCN)cc1)NC(=O)c1nc(Cl)c(N)nc1N` [Compound 45, 3,5-diamino-N—(N-(4-(4-(2-(bis(3-aminopropyl)amino)ethoxy)phenyl)butyl)carbamimidoyl)-6-chloropyrazine-2-carboxamide], the “6 h Ocular Hydration (AUC0-6)” value in the data set on ExLac rats is listed as 42.3. Besides, the “Hepatocyte Stability (amount of parent compound remaining)” value in data set [2] is listed as 75%; in data set [7] it was 83%.

In the case of `N=C(N)NCCCC[C@H](N)C(=O)NCCCC[C@H](N)C(=O)NCCCC[C@H](N)C(=O)NCCCN(CCCNC(=O)[C@@H](N)CCCCNC(=O)[C@@H](N)CCCCNC(=O)[C@@H](N)CCCCNC(=N)N)CCOc1ccc(CCCCNC(=N)NC(=O)c2nc(Cl)c(N)nc2N)cc1` [Compound 102, (S,S,2S,2′S)—N,N′-(3,3′-(2-(4-(4-(3-(3,5-diamino-6-chloropyrazine-2-carbonyl)guanidino)butyl)phenoxy)ethylazanediyl)bis(propane-3,1-diyl))bis(2-amino-6-((S)-2-amino-6-((S)-2-amino-6-guanidinohexanamido)hexanamido)hexanamide)], the “6 h Ocular Hydration (AUC0-6)” value in the data set with ExLac rats is 43.2.

On to `N=C(N)NCCCC[C@@H](N)C(=O)NCCCN(CCCNC(=O)[C@H](N)CCCCNC(=N)N)CCOc1ccc2cc(CCCCNC(=N)NC(=O)c3nc(Cl)c(N)nc3N)ccc2c1` [Compound 116, (2R,2′R)—N,N′-(3,3′-(2-(6-(4-(3-(3,5-diamino-6-chloropyrazine-2-carbonyl)guanidino)butyl)naphthalen-2-yloxy)ethylazanediyl)bis(propane-3,1-diyl))bis(2-amino-6-guanidinohexanamide)], for which the “6 h Ocular Hydration (AUC0-6)” value in the data set on ExLac rats is 40.9.

With `N=C(N)NCCCC[C@@H](N)C(=O)NCCCN(CCCNC(=O)[C@H](N)CCCCNC(=N)N)CCOc1ccc(CCCCNC(=N)NC(=O)c2nc(Cl)c(N)nc2N)c2c1CCCC2` [Compound 133, (2R,2′R)—N,N′-(3,3′-(2-(4-(4-(3-(3,5-diamino-6-chloropyrazine-2-carbonyl)guanidino)butyl)-5,6,7,8-tetrahydronaphthalen-1-yloxy)ethylazanediyl)bis(propane-3,1-diyl))bis(2-amino-6-guanidinohexanamide)], in the data set with ExLac rats, the “6 h Ocular Hydration (AUC0-6)” value came out at 45.7.

Regarding `N=C(N)NCCCC[C@H](N)C(=O)NCCCN(CCCNC(=O)[C@@H](N)CCCCNC(=N)N)CCCc1ccc(NC(=O)[C@@H](N)Cc2ccc(CCCCNC(=N)NC(=O)c3nc(Cl)c(N)nc3N)cc2)cc1` [Compound 145, (2S,2′S)—N,N′-(3,3′-(3-(4-((S)-2-amino-3-(4-(4-(3-(3,5-diamino-6-chloropyrazine-2-carbonyl)guanidino)butyl)phenyl)propanamido)phenyl)propylazanediyl)bis(propane-3,1-diyl))bis(2-amino-6-guanidinohexanamide)], the “6 h Ocular Hydration (AUC0-6)” value with ExLac rats was determined as 44.7.

Turning to `CC(=O)N[C@@H](CS)C(=O)O` [NAC, N-acetyl cysteine], the “Concentration required to fully reduce Muc5B” value on Muc5B is given as 200 mM.
